From patent US20070197510A1, “Nitriles and medicinal compositions containing the same as the active ingredient” (priority 2004, published 2007)

Biological target: T1, cathepsin K (Homo sapiens, UniProt P43235)
T1 sequence (P43235 115-329): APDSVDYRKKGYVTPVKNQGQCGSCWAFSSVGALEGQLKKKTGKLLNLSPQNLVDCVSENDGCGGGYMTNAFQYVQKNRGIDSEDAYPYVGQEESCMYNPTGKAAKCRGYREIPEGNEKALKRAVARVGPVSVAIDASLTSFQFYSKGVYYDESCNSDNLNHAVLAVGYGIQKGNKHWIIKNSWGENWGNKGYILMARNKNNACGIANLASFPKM
Assay: Measurement of cathepsin K inhibitory activity
Format: biochemical
Conditions: fluorogenic substrate Boc-Ala-Gly-Pro-Arg-MCA, pH 5.5, 37° C.
Experimental: (i) Measurement of Cathepsin k Inhibitory Activity
65 μL of Cathepsin K Enzyme Reaction Buffer (50 Mmol/L of 2-(N-morpholino)ethanesulfonate, 2 mmol/L of ethylenediaminetetraacetate (EDTA) and 4 mmol/L of dithiothreitol (DTT) were mixed to adjust to pH 5.5), 5 μL of cysteine protease inhibitor solution of several concentrations, 20 μL of synthesized substrate (t-butyloxycarbonyl-L-alanyl-glycyl-L-prolyl-L-arginine-[…]) solution of several concentrations and 10 μL of cathepsin K enzyme solution were mixed and the increase of fluorescence intensity when reacted at 37° C. was measured (λex (excitation wavelength)=355 nm, λem (fluorescence wavelength)=460 nm). As to the substrate and the compound of the present invention, enzyme reactions were carried […]

Question: How did the IC50 turn out when `CN1CCN(C(=O)CN2Cc3cnc(C#N)nc3N(CC(C)(C)C)C2=O)CC1` [Example 55(14), 8-(2,2-dimethylpropyl)-6-[2-(4-methyl-1-piperazinyl)-2-oxoethyl]-7-oxo-5,6,7,8-tetrahydropyrimido[4,5-d]pyrimidine-2-carbonitrile] was run?
Answer: 12 nM

Question: With `CC(C)(C)Cn1c2nc(C#N)ncc2c(=O)n1Cc1cccs1` [compound 8(2B), 1-(2,2-dimethylpropyl)-3-oxo-2-(2-thienylmethyl)-2,3-dihydro-1H-pyrazolo[3,4-d]pyrimidine-6-carbonitrile] as the compound, how does the IC50 read?
Answer: 2.9 nM
